For one data set, the system named is HMEC1. The data set is described as follows: Cell viability assay (MTT), HMEC1. Format: cell-based, Human. The settings on record: MTT, 10% FBS, 6-day treatment, 1% DMSO. In a few lines:
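HMEC1 cells seeded 24 h before dosing, then exposed to 0–200 μM compound (11 concentrations) in medium with 10% FBS and 1% DMSO final, refed every 3 days. Viability read on day 6 by MTT (0.5 mg/ml, 1–5 h at 37 °C), absorbance 550 nm; IC50 from dose-response curves, mean±SEM of 1–8 experiments.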

The test system of another data set is MDA-MB-231. The data set is described as follows: Cell viability assay (MTT), MDA-MB-231. Format: cell-based, human. As to conditions: Homo sapiens, 1% DMSO. In a few lines: (§1)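 Cells seeded 24 h before treatment with 0–200 μM compound (11 concentrations, 1% DMSO final) in 10% or 0.5% FBS medium; exposure 16 h, 3 or 6 days, fed every 3 days in 6-day runs. MTT 0.5 mg/ml read at 550 nm; IC50 from dose-response curves, mean±SEM.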

The next data set concerns HCT116 cells. The data set is described as follows: Anchorage-independent cell growth assay in soft agar. As to conditions: 7 days; for IC50: Homo sapiens, HCT-116, 168 h, HCT116, 0.3% agar. In kind it is cell-based, human. On the procedure:
FIG. 3: Anchorage-independent growth assay in soft agar. 5 10^3 cells were seeded in 24-well plates in 0.3% agar-containing medium supplemented with the designated amount of compounds. After 7 days of incubation at 37° C., pictures of each well were taken and analyzed using the ImageJ image analysis software. In particular, clone size and number were calculated. The data were analyzed using GraphPad Prism, and IC50 was calculated. […] (A) Typical dose-response curves obtained for clone size and number. (B) Bar graph displaying the IC50s calculated for each compound.
In order to evaluate the effect of one compound on the capacity of tumour cells to grow without anchorage, HCT116 cells were seeded in soft agar. In contrast to microplate assays which average the drug's effects over an entire cell population, clonogenic assays offer the possibility of distinguishing cytotoxic agents (i.e., decreased colony number) from cytostatic agents (i.e., decreased colony size without decreased colony number; Murphy M. J. et al., 1996). Briefly, 5 10^3 HCT116 cells were resuspended in 300 μl of complete medium containing 0.3% soft-agar (Difco) and different concentrations of compound (8 concentrations ranging from 0 to 30 μM). Cells were then poured on a solidified layer of medium containing 0.5% of soft agar plus the compound at the same concentration as in the upper layer. Cells were incubated for 7 days at 37° C. before pictures of each well were taken using a phase contrast microscope (Nikon) and a digital camera (Nikon Coolpix 990). Pictures were subsequently analyzed using free image analysis software from the NIH (ImageJ) allowing determination of clone size and number.
Data were analyzed using the GraphPad Prism software, and IC50 (dose leading to a 50% decrease of clone size or number) was calculated from dose-response curves.

A further data set concerns NIH 3T3. The data set is described as follows: Cell viability assay (MTT), NIH 3T3. As to conditions: Mus musculus, 10% FBS, 1% DMSO. In kind it is cell-based, mouse. In a few lines: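 MTT viability in medium with 10% FBS and 1% DMSO, with cells seeded 24 h before treatment at 0–200 μM (11 concentrations). There were two formats: 6-day (3–15 10^3 cells, re-fed every 3 days) or 16-hour (5–10 10^4 cells). Absorbance was read at 550 nm, giving IC50 (50% cell death) as mean±SEM.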

The test system of a further data set is HepG2. The data set is described as follows: Cell viability assay (MTT), HepG2. Format: cell-based. As to conditions: Homo sapiens, 10% FBS, 16-hours treatment, 1% DMSO. On the procedure: (§2) Table 15: 16-hour cell viability assay (MTT) in the presence of 10% Fetal Bovine Serum and 1% DMSO, in HCT116, MDA-MB-231, NIH3T3, HepG2 and primary hepatocytes. 5 10^4 to 10 10^4 cells were seeded in 48-well plates in growth medium containing 10% FBS, with or without various concentrations of test compounds. Data were analyzed and IC50s were calculated from dose-reponse curves using GraphPad Prism. Results summarized in the tables are mean±SEM of 1 to 2 independent experiments.
(§3) In order to determine a compound's effect on cell viability, microculture tetrazolium assays (MTT) were performed as described by Carmichael et al. (1996) with modifications. Four human tumoral cell lines, namely HCT116 colon adenocarcinoma, H460 lung carcinoma, MCF-7 and MDA-MB-231 breast carcinoma cell lines, DLD1 colorectal adenocarcinoma, HeLa adenocarcinoma, HepG2 hepatocellular carcinoma. 3 immortalized but non tumorigenic cell lines, namely NIH3T3 mouse fibroblasts (American Type Culture Collection) and primary hepatocytes (Biopredic international), cultured according to their recommendations together with Human Microvasculature Endothelial Cell line HMEC1 (National Center for Infectious Diseases). Briefly, cells were seeded in 48-well plates 24 hours before drug addition. Cells were treated with 0 to 200 μM (11 concentrations) of compound solubilized in DMSO, adjusting the final concentration of DMSO to 1% in the well. 16 hours, and three or six days after treatment, 0.5 mg/ml MTT (Sigma) was added to the medium and cells were incubated for 1-5 hours at 37° C. before solubilization of formazan crystals in 100% DMSO. Absorbance was measured using a spectrophotometer at a wavelength of 550 nm. Data was analyzed using the GraphPad Prism software (GraphPad Software, Inc.), and IC50 (dose leading to 50% cell death) was calculated from the dose-response curves.

The test system of another data set is HCT116. The data set is described as follows: Cell viability assay (MTT), HCT116. In kind it is cell-based, human. As to conditions: 1% DMSO. Put shortly: as §1
The next data set relates to HeLa. The data set is described as follows: Cell viability assay (MTT), HeLa. In kind it is cell-based. As to conditions: Homo sapiens, 72 h, 10% FBS, 3-day treatment, 1% DMSO. On the procedure: (§4) Table 14: 3-day cell viability assay (MTT) in the presence of 10% Fetal Bovine Serum and 1% DMSO, in DLD1, HCT116, MDA-MB-231, MCF7 and HeLa cells. 7.5 10^3 to 1.5 10^4 cells were seeded in 48-well plates in growth medium containing 10% FBS, with or without various concentrations of test compounds. Data were analyzed and IC50s were calculated from dose-response curves using GraphPad Prism. Results summarized in the tables are mean±SEM of 1 to 7 independent experiments.
as §3

In a further data set the test system is DLD1. The data set is described as follows: Cell viability assay (MTT), DLD1. In kind it is cell-based. As to conditions: Homo sapiens, DLD-1, 72 h, 10% FBS, 3-day treatment, 1% DMSO. On the procedure: as §4, §3
For another data set, the system named is MCF7. The data set is described as follows: Cell viability assay (MTT), MCF7. Format: cell-based. The settings on record: Homo sapiens, MCF7, 72 h, 10% FBS, 3-day treatment, 1% DMSO. On the procedure: Table 12: 6-day cell viability assay (MTT) in the presence of 10% Fetal Bovine Serum and 1% DMSO, in HMEC1, HCT116, MDA-MB-231, MCF7 and NIH3T3 cell lines. 3 10^3 to 15 10^3 cells were seeded in 48-well plates in growth medium containing 10% FBS, with or without various concentrations of test compounds. Cell cultures were fed every 3 days with the appropriate media. Cell viability was determined on day 6. Data were analyzed and IC50s were calculated from dose-response curves using GraphPad Prism. Results summarized in the tables are mean±SEM of 1 to 8 independent experiments.
as §4, §3

For another data set, the system named is Primary Hepatocytes. The data set is described as follows: Cell viability assay (MTT), primary hepatocytes. Format: cell-based. As to conditions: Hepatocyte, 10% FBS, 16-hours treatment, 1% DMSO. On the procedure:
as §2, §3

Data set [1] concerns Salmonella typhimurium TA 98 and TA 100 strains. The data set is described as follows: Screening Ames test. The settings on record: with and without S9 mix; 10 to 5000 μg per plate. The text has this: The objective of this study was to evaluate the potential of the test items to induce reverse mutation in Salmonella Typhimurium (TA 98 and TA 100 strains). The bacterial reverse mutation test is able to identify substances that cause point mutations, by substitution, addition or deletion of one or a few DNA base-pairs. Mutagenic substances can induce reversion in histidine deficient strains which are then able to grow and form colonies in a histidine-limited medium, while non-reverted cannot. This test is performed in the absence and presence of a rat liver metabolising system (S9 mix). Three known mutagens are used to check sensitivity of test system: sodium azide, 2-nitrofluorene and 2-anthramine.
The dose levels per plate were of 10 to 5000 μg. A preliminary toxicity test was performed followed by the mutagenecity test per se.

[2] abbreviates: MDA-MB-231, 144 h, 10% FBS, 6-day treatment, read-out: IC50 μM, MDA-MB-231.
[3] abbreviates: Homo sapiens, HCT-116, 144 h, 0.5% FBS, 6-day treatment.
Setting [4] is: Homo sapiens, HCT-116, 144 h, 10% FBS, 6-day treatment.
Setting [5] is: MDA-MB-231, 144 h, 0.5% FBS, 6-day treatment, read-out: IC50 (μM), MDA-MB-231.

Where two headings read alike, the source gives them in different places.

With `O=c1cc(COC2CCCCO2)occ1OCCCCCSc1ccnc2cc(C(F)(F)F)ccc12` (stereo not shown) [EHT 9376, 2-(Tetrahydro-pyran-2-yloxymethyl)-5-[5-(7-trifluoromethyl-quinolin-4-ylsulfanyl)-pentyloxy]-4H-pyran-4-one], the IC50 is less than 10 µM in the data set on HMEC1 (Homo sapiens, HMEC-1, 144 h); 8.2 µM in the data set on HMEC1; 11.5 µM in the data set with MDA-MB-231 (setting [2]); 5.4 ± 1.2 µM with HCT116 cells; 8.1 µM in the data set on NIH 3T3 (NIH3T3, 144 h, 6-day treatment).

As for `O=c1cc(CN2CCOCC2)occ1OCc1cccc(CSc2ccnc3cc(C(F)(F)F)ccc23)c1` [EHT 2725, 5-((3-((7-(Trifluoromethyl)quinolin-4-ylthio)methyl)phenyl)methoxy)-2-(morpholinomethyl)-4H-pyran-4-one], the IC50 was 45.2 µM with HepG2; 2.7 µM in the data set on HCT116 (10% FBS, 6-day treatment); 9.9 µM in the data set with HCT116 (Homo sapiens, HCT-116, 72 h, 10% FBS, 3-day treatment); 5.4 µM with HCT116 (setting [3]); less than 4 µM in the data set on HCT116 (setting [4]); 28.1 µM in the data set on HMEC1 (Homo sapiens, HMEC-1, 144 h). Further, the IC50 with HeLa came to 20.9 µM; in the data set with DLD1 it was 12.2 µM; in the data set with MDA-MB-231 (MDA-MB-231, 72 h, 10% FBS, 3-day treatment, read-out: IC50 μM, MDA-MB-231), 19.5 µM; with MDA-MB-231 (setting [5]) it was 6.4 µM; with MDA-MB-231 (setting [2]) it was 9.3 µM; in the data set on MCF7, 7.3 µM. The half-maximal inhibitory concentration (IC50) in the data set with Primary Hepatocytes was greater than 50 µM; in the data set with NIH 3T3 (NIH3T3, 144 h, 6-day treatment), 24.8 µM. Further, the mutagenic activity entry in data set [1] is on record as “did not show any mutagenic activity”.

Turning to `NC(=O)c1nnn(Cc2cc(Cl)c(C(=O)c3ccc(Cl)cc3)c(Cl)c2)c1N` [CAI, carboxyamidotriazole, reference compound], the concentration for half-maximal inhibition (IC50) is 44.1 µM in the data set with HCT116 (Homo sapiens, HCT-116, 16 h, 10% FBS, 16-hours treatment); 0.6 µM in the data set with HCT116 (setting [3]); 1 µM in the data set with HCT116 (setting [4]); 28.4 µM with HMEC1 (Homo sapiens, HMEC-1, 144 h); greater than 50 µM with MDA-MB-231 (MDA-MB-231, 16 h, 10% FBS, 16-hours treatment, read-out: IC50 μM, MDA-MB-231); 0.4 µM in the data set on MDA-MB-231 (setting [5]). Besides, the IC50 in the data set with MDA-MB-231 (setting [2]) came out at 1.3 µM; in the data set on HCT116 cells, 5.8 ± 1 µM; in the data set on NIH 3T3 (NIH3T3, 16 h, 16-hours treatment), 95.9 µM; in the data set on NIH 3T3 (NIH3T3, 144 h, 6-day treatment), 5.8 µM. In addition, the “mode of action: clone size versus clone number” value with HCT116 cells (soft agar) was “preferentially affect clone size as compared to clone number”.

The values above are taken from patent publication US7514432B2, “Compounds and methods of treating cell proliferative diseases, retinopathies and arthritis” (Exonhit Therapeutics SA, priority 2003, dated 2009).
